Measured values published in the supplement of paper PMC8617591.

Experiments:
[1] = test system: Mycobacterium tuberculosis Erdman (autoluminescent); assay: FIC90 (Loewe) at 90% inhibition (log2); higher = more antagonistic
Procedure: (§1)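 DiaMOND equipotent two-drug combination dose responses against autoluminescent M. tuberculosis Erdman in 8 in vitro models. Read-out is OD600, or luminescence for the intracellular and dormancy models, normalised to untreated wells. Hill-fit Einf, AUC25 and GRinf are potency metrics; FIC50 and FIC90 are Loewe-additivity fractional inhibitory concentrations, given as log2 (negative = synergy). Replicates are averaged.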

[2] = test system: Mycobacterium tuberculosis Erdman (autoluminescent); assay: FIC50 (Loewe) at 50% inhibition (log2); higher = more antagonistic
Procedure: as §1

[3] = test system: Mycobacterium tuberculosis Erdman (autoluminescent); assay: Einf, fitted maximum growth inhibition of combination (fraction); higher = stronger maximal inhibition
Procedure: as §1

[4] = test system: Mycobacterium tuberculosis Erdman (autoluminescent); assay: GRinf, maximum normalised growth rate inhibition (unitless (-1 to 1)); higher = less effect (negative = killing)
Procedure: as §1

[5] = test system: Mycobacterium tuberculosis Erdman (autoluminescent); assay: AUC25, normalised area under dose response up to IC25 (fraction (0-1)); higher = more potent at low dose
Procedure: as §1

O=[N+]([O-])c1cn2c(n1)OC[C@@H](OCc1ccc(OC(F)(F)F)cc1)C2 [pretomanid] + CO[C@H]1/C=C/O[C@@]2(C)Oc3c(C)c(O)c4c(O)c(c(/C=N/N5CCN(C6CCCC6)CC5)c(O)c4c3C2=O)NC(=O)/C(C)=C\C=C\[C@H](C)[C@H](O)[C@@H](C)[C@@H](O)[C@@H](C)[C@H](OC(C)=O)[C@@H]1C [rifapentine]
Settings	AUC25, [5]	Einf, [3]	FIC50, [2]	FIC90, [1]	GRinf, [4]
in vitro model: acidic pH 5.7, time point: constant (~7 days, model-specific)	0.101	0.925	0.285	–	-0.447
in vitro model: acidic pH 5.7, time point: terminal (~4-5 doublings, model-specific)	0.0525	0.991	0.359	0.243	-0.276
in vitro model: intracellular J774, time point: constant = terminal	–	0.991	–	-0.454	-0.347

Settings	AUC25, [5]	Einf, [3]	FIC50, [2]	FIC90, [1]	GRinf, [4]
in vitro model: butyrate, time point: constant (~7 days, model-specific)	0.0925	0.929	0.307	0.357	-0.0285
in vitro model: butyrate, time point: terminal (~4-5 doublings, model-specific)	0.0679	0.963	0.223	0.114	-0.0133
in vitro model: cholesterol 0.05 mM, time point: constant (~7 days, model-specific)	0.114	0.732	0.253	–	-0.354
in vitro model: cholesterol 0.05 mM, time point: terminal (~4-5 doublings, model-specific)	0.0965	0.93	0.285	1.63	-0.257
in vitro model: cholesterol-high 0.2 mM, time point: constant (~7 days, model-specific)	0.0774	0.911	0.634	–	-0.247
in vitro model: cholesterol-high 0.2 mM, time point: terminal (~4-5 doublings, model-specific)	0.0546	0.979	0.806	0.721	-0.463
in vitro model: dormancy (butyrate + nitrate, low O2), time point: constant (~7 days, model-specific)	0.0571	0.904	0.527	0.277	0.192
in vitro model: dormancy (butyrate + nitrate, low O2), time point: terminal (~4-5 doublings, model-specific)	0.0438	0.983	0.383	0.448	-0.148
in vitro model: standard 7H9 glycerol, time point: constant = terminal	0.0697	0.928	-0.158	0.519	0.0428
in vitro model: valerate, time point: constant (~7 days, model-specific)	0.127	0.892	0.377	–	-0.0483
in vitro model: valerate, time point: terminal (~4-5 doublings, model-specific)	0.0738	0.954	0.21	0.484	-0.107

O=[N+]([O-])c1cn2c(n1)OC[C@@H](OCc1ccc(OC(F)(F)F)cc1)C2 [pretomanid] + CO[C@H]1/C=C/O[C@@]2(C)Oc3c(C)c(O)c4c(O)c(c(/C=N/N5CCN(C)CC5)c(O)c4c3C2=O)NC(=O)/C(C)=C\C=C\[C@H](C)[C@H](O)[C@@H](C)[C@@H](O)[C@@H](C)[C@H](OC(C)=O)[C@@H]1C [rifampicin]
Settings	AUC25, [5]	Einf, [3]	FIC50, [2]	FIC90, [1]	GRinf, [4]
in vitro model: acidic pH 5.7, time point: constant (~7 days, model-specific)	0.106	0.944	0.259	–	-0.224
in vitro model: acidic pH 5.7, time point: terminal (~4-5 doublings, model-specific)	0.0463	0.985	0.545	-0.025	-0.239
in vitro model: intracellular J774, time point: constant = terminal	–	0.966	–	-0.863	-0.281

Settings	AUC25, [5]	Einf, [3]	FIC50, [2]	FIC90, [1]	GRinf, [4]
in vitro model: butyrate, time point: constant (~7 days, model-specific)	0.0943	0.915	0.189	-0.398	0.00239
in vitro model: butyrate, time point: terminal (~4-5 doublings, model-specific)	0.0817	0.966	-0.0797	-0.223	-0.0223
in vitro model: cholesterol 0.05 mM, time point: constant (~7 days, model-specific)	0.108	0.691	0.468	–	-0.0815
in vitro model: cholesterol 0.05 mM, time point: terminal (~4-5 doublings, model-specific)	0.0829	0.905	0.242	-0.715	-0.0976
in vitro model: cholesterol-high 0.2 mM, time point: constant (~7 days, model-specific)	0.0743	0.902	0.509	0.733	-0.211
in vitro model: cholesterol-high 0.2 mM, time point: terminal (~4-5 doublings, model-specific)	0.0653	1	0.521	0.306	-0.595
in vitro model: dormancy (butyrate + nitrate, low O2), time point: constant (~7 days, model-specific)	0.0843	0.942	0.23	-0.00861	0.0579
in vitro model: dormancy (butyrate + nitrate, low O2), time point: terminal (~4-5 doublings, model-specific)	0.0526	0.986	0.0748	0.236	-0.16
in vitro model: standard 7H9 glycerol, time point: constant = terminal	0.0517	0.912	-0.316	-1.42	0.0474
in vitro model: valerate, time point: constant (~7 days, model-specific)	0.104	0.877	0.152	–	0.0588
in vitro model: valerate, time point: terminal (~4-5 doublings, model-specific)	0.0482	0.943	0.504	-0.0514	0.0666

O=[N+]([O-])c1cn2c(n1)OC[C@@H](OCc1ccc(OC(F)(F)F)cc1)C2 [pretomanid] + NC(=O)c1cnccn1 [pyrazinamide]
Settings	AUC25, [5]	Einf, [3]	FIC50, [2]	FIC90, [1]	GRinf, [4]
in vitro model: acidic pH 5.7, time point: constant (~7 days, model-specific)	0.088	0.831	-0.419	-0.689	-0.435
in vitro model: acidic pH 5.7, time point: terminal (~4-5 doublings, model-specific)	0.0893	0.968	-0.536	-1.56	-0.433
in vitro model: intracellular J774, time point: constant = terminal	–	1	–	-0.0198	-0.358

Settings	AUC25, [5]	Einf, [3]	FIC50, [2]	FIC90, [1]	GRinf, [4]
in vitro model: butyrate, time point: constant (~7 days, model-specific)	0.115	0.869	-0.24	1.15	0.144
in vitro model: butyrate, time point: terminal (~4-5 doublings, model-specific)	0.109	0.936	-0.0126	1.79	0.0694
in vitro model: cholesterol 0.05 mM, time point: constant (~7 days, model-specific)	0.137	0.752	–	–	-0.38
in vitro model: cholesterol 0.05 mM, time point: terminal (~4-5 doublings, model-specific)	0.109	0.922	0.0466	–	-0.194
in vitro model: cholesterol-high 0.2 mM, time point: constant (~7 days, model-specific)	0.0725	0.886	-0.0986	–	-0.169
in vitro model: cholesterol-high 0.2 mM, time point: terminal (~4-5 doublings, model-specific)	0.0665	0.998	0.341	-0.19	-0.445
in vitro model: dormancy (butyrate + nitrate, low O2), time point: constant (~7 days, model-specific)	0.0996	0.936	-0.574	0.149	0.076
in vitro model: dormancy (butyrate + nitrate, low O2), time point: terminal (~4-5 doublings, model-specific)	0.0823	0.995	-0.829	0.679	-0.921
in vitro model: standard 7H9 glycerol, time point: constant = terminal	0.067	0.915	-0.256	–	0.0921
in vitro model: valerate, time point: constant (~7 days, model-specific)	0.093	0.833	0.0923	–	0.163
in vitro model: valerate, time point: terminal (~4-5 doublings, model-specific)	0.065	0.923	-0.176	-0.316	0.118

NC(=O)c1cnccn1 [pyrazinamide] + CO[C@H]1/C=C/O[C@@]2(C)Oc3c(C)c(O)c4c(O)c(c(/C=N/N5CCN(C6CCCC6)CC5)c(O)c4c3C2=O)NC(=O)/C(C)=C\C=C\[C@H](C)[C@H](O)[C@@H](C)[C@@H](O)[C@@H](C)[C@H](OC(C)=O)[C@@H]1C [rifapentine]
Settings	AUC25, [5]	Einf, [3]	FIC50, [2]	FIC90, [1]	GRinf, [4]
in vitro model: acidic pH 5.7, time point: constant (~7 days, model-specific)	0.0839	0.93	-0.598	–	-0.369
in vitro model: acidic pH 5.7, time point: terminal (~4-5 doublings, model-specific)	0.0754	0.997	-0.129	-1.04	-0.31
in vitro model: intracellular J774, time point: constant = terminal	–	0.964	–	-0.235	-0.243

Settings	AUC25, [5]	Einf, [3]	FIC50, [2]	FIC90, [1]	GRinf, [4]
in vitro model: butyrate, time point: constant (~7 days, model-specific)	0.109	0.875	0.371	1.25	0.119
in vitro model: butyrate, time point: terminal (~4-5 doublings, model-specific)	0.0943	0.941	0.431	1	0.108
in vitro model: cholesterol 0.05 mM, time point: constant (~7 days, model-specific)	0.127	0.63	–	–	0.0214
in vitro model: cholesterol 0.05 mM, time point: terminal (~4-5 doublings, model-specific)	0.105	0.896	0.52	–	-0.284
in vitro model: cholesterol-high 0.2 mM, time point: constant (~7 days, model-specific)	0.0949	0.922	0.664	–	-0.246
in vitro model: cholesterol-high 0.2 mM, time point: terminal (~4-5 doublings, model-specific)	0.0793	1	1.19	0.905	-0.711
in vitro model: dormancy (butyrate + nitrate, low O2), time point: constant (~7 days, model-specific)	0.0917	0.902	-0.609	1.09	0.258
in vitro model: dormancy (butyrate + nitrate, low O2), time point: terminal (~4-5 doublings, model-specific)	0.0455	0.982	-0.14	-0.0574	-0.142
in vitro model: standard 7H9 glycerol, time point: constant = terminal	0.0487	0.866	-0.0174	–	0.219
in vitro model: valerate, time point: constant (~7 days, model-specific)	0.0445	0.684	0.675	–	0.299
in vitro model: valerate, time point: terminal (~4-5 doublings, model-specific)	0.0349	0.892	0.752	0.534	0.155
